Data from US20220325239A1, “CELL CULTURE” (AGENCY FOR SCIENCE, TECHNOLOGY AND RESEARCH, priority 2019, published 2022).

Experiments:
FINE cells = assay: Withdrawal or replacement of AZD5438 / Dasatinib in FINE culture; assay type: cell-based, human; conditions: for sustaining feeder-free naïve hESCs when replacing Dasatinib in FINE: 2 passages; for morphology after withdrawal from FINE: withdrawal for 3 passages
Source text: FIG. 4A is a diagram showing brightfield and immunofluorescence staining of KLF4, TFE3 and KLF17 in FINE culture after withdrawal of AZD, Dasa or both for 3 passages. Scale bar=50 μm.
FIG. 4B is a diagram showing quantification of fraction of nuclei positive for naïve-associated transcription factors in hESCs cultured in FINE after withdrawal of AZD, Dasa or both for 3 passages. Mean±SD of three independent experiments.
FIG. 4C is a diagram showing expression of blastocyst-associated transcripts in hESCs cultured in FINE after withdrawal of AZD, Dasa or both for 2 passages. Mean±SD of three independent qPCR experiments.
FIG. 4D and FIG. 4E are diagrams showing expression of blastocyst-associated transcripts in hESCs cultured in FINE after (D) replacement of Dasa with other Src and Bcr-Abl inhibitors or (E) replacement of AZD with Dinaciclib (in H9 line) for 2 passages. Mean±SD of three independent qPCR experiments.
Therefore, we wanted to test if both are also important for the maintenance of naivety in FINE.

hESC = assay: Adaptation and survival of feeder-free hESCs in 4iLA supplemented with chemical combinations (C1-C21); assay type: cell-based, human; conditions: condition 19 background
Source text: FIG. 2C is a diagram showing relative survival of hESC culture under 4 iLA supplemented with different chemical combinations conditions (C1-C21) over 9 passages without feeders. 4 iLA was included as control.
We next sought to find a condition that enables stable naïve culture by adapting feeder-free primed hESCs onto media supplemented by one or more of the hits at various concentrations (FIG. 2C, Table E2, below).

H9 cells = assay: Karyotyping / cytogenetic analysis; assay type: cell-based, human; conditions: PD0325901 reduced from 1 μM to 0.3 μM
Protocol: FIG. 7B is a diagram showing summary of cytogenetic analysis of H9 cells (top) under various naïve culture conditions (rows) and passage numbers (columns). Representative karyotypes at various passage numbers in FINE (bottom).
Various hESCs lines were seeded into glass cover slip slides as single cells. Karyotyping service including colcemid treatment and G-band analysis was outsourced with Parkway Laboratory Services.

hESCs = assay: Expression of naïve / blastocyst / 8-cell markers under culture conditions (qPCR, immunofluorescence); assay type: cell-based, human; conditions: PD0325901 reduced from 1 μM to 0.3 μM, H9
Protocol: (§1) Total RNA was extracted using TRIzol reagent (Invitrogen) according to manufacturer's protocol followed by DNAase I treatment (Ambion).
(§2) 250-1000 ng of DNAase treated RNA was reverse transcribed using SuperScript II (Invitrogen) and oligo-dT primers (Invitrogen) according to manufacturer's instructions. Reactions were performed in final volume of 20μ1. cDNA was diluted before qPCR analysis.
(§3) qPCR was performed using KAPA SYBR FAST master mix (KAPA Biosystem) following standard procedures. qPCR reactions were performed in biological duplicates or triplicates in 384-well plates on the ViiA™ 7 Real-Time PCR System (Life Technologies). Two technical replicates were carried out for each qPCR reaction and data was normalised to GAPDH. The relative abundance of transcripts was calculated using ΔΔC(T) method.
Before fixation with 4% formaldehyde (Sigma) cells were washed with PBS (Gibco) in tissue culture plates (Falcon) for 30 minutes at room temperature. Permeabilization was performed with 1% of Triton-X 100 in PBS followed by blocking step performed in blocking buffer (blocking buffer—8% FBS in PBS-T (PBS-T 1% Tween in PBS)) each for 30 minutes at room temperature. Cells were incubated with primary antibodies, diluted in blocking buffer, overnight at 4° C. with gentle agitation. […]

naïve hESCs = assay: Naïve pluripotency marker expression after short-term supplementation of hits upon feeder withdrawal (qPCR); assay type: cell-based, human
Source text: 3iL and 4 iLA media were supplemented with small molecule compounds at various concentrations for single and combinatory treatments. Small molecules used in the study: Dasatinib (Selleckchem), AZD5438 (TOCRIS), CHIR-98014 (Sigma), Crenolanib (Selleckchem), Saracatinib (Selleckchem), Src Inhibitor-1 (Sigma), Nilotinib (STEMCELL Technologies), Imatinib (STEMCELL Technologies), Dinaciclib (Selleckchem), WH-4-023 (Sigma).
as §1, §2
as §3, with “method. […]” for “method.”

[1] = system: LTR7Y-zsGreen reporter cells; assay: High-throughput small molecule screen for feeder-free maintenance of naïve hESCs (LTR7Y-zsGreen fluorescence); assay type: cell-based, human; conditions: 3iL without feeders
Protocol: 3,000 cells cultured in mTeSR1 (STEMCELL Technologies) or 3iL were seeded per well into 384-well plates (Greiner) coated with 30× Matrigel (Corning) or 30× growth factor reduced Matrigel (Corning) in 45 µl of medium. 4 hours after seeding, cells were treated with anti-cancer and anti-kinase libraries (Selleckchem; kinase inhibitor screening library—customised collection of 273 kinase inhibitors, anti-cancer compound library—customized collection of 349 bioactive compounds). Small molecules were used at 3 different concentrations: 100 nM, 1 μM and 10 μM for each condition. 48 hours after the treatment, culture media was renewed concomitant with a second round of treatment with the compounds. […] Images were processed and fluorescence signal was quantified using Columbus Image Data Storage and Analysis System (PerkinElmer). […] Z-score for zsGreen fluorescence was calculated using formula: z=(X−μ)/s.d. where μ—mean, s.d.—standard deviation of whole population, X−integrated intensity of zsGreen divided by total number of cells. […]
We first ensured the quality of the screen by certifying the absence of intra-plate layout biases (FIG. 8I), proper inter-plate alignment (FIG. 8J) and good correlation between replicates (FIG. 8K). Z-scores were then calculated, and compounds that reproducibly scored above noise (z>2 in at least 2 replicates) were regarded as hits (FIG. 1B, S1L). […]

cellular CDK substrates = conditions: cited from earlier work
human tumor xenograft = conditions: oral, 50 mg/kg/12 h or 75 mg/kg/day, mice; cited from earlier work
human cancer cultures = conditions: broad spectrum of human cancer cultures; cited from earlier work

COc1cc2ncnc(Nc3ccc(Oc4ccccc4)cc3)c2cc1OC [SRCi]
sustaining feeder-free naïve hESCs when replacing Dasatinib in FINE (FINE cells): failed to sustain

COc1ccc(N(C(=O)Oc2c(C)cccc2C)c2ccnc(Nc3ccc(N4CCN(C)CC4)cc3)n2)c(OC)c1 [WH-4-023]
sustaining feeder-free naïve hESCs when replacing Dasatinib in FINE (FINE cells): failed to sustain
requirement for adaptation and maintenance of feeder-free naïve cells (hESC): dispensable

O=C(NOC[C@H](O)CO)c1ccc(F)c(F)c1Nc1ccc(I)cc1F [PD0325901, N-[(2R)-2,3-dihydroxypropoxy]-3,4-difluoro-2-(2-fluoro-4-iodoanilino)benzamide]
effect of lowered concentration in FINE on acquisition of chromosomal abnormalities (H9 cells): further delayed acquisition of chromosomal abnormalities
effect of lowered concentration in FINE on naïve pluripotent marker expression (hESCs): slight adverse effect

Cc1nc(Nc2ncc(C(=O)Nc3c(C)cccc3Cl)s2)cc(N2CCN(CCO)CC2)n1.O [Dasatinib, N-(2-chloro-6-methylphenyl)-2-[[6-[4-(2-hydroxyethyl)-1-piperazinyl]-2-methyl-4-pyrimidinyl]amino]-5-thiazole carboxamide monohydrate]
effect on downregulation of naïve pluripotency markers (naïve hESCs; 4iLA, RNA after 12 days): had the same effect
outcome of the screen (hit) [1]: identified novel regulators of naïve pluripotency
loss of naivety upon withdrawal from FINE (FINE cells; compared with AZD5438 withdrawal): more pronounced effect
morphology after withdrawal from FINE (FINE cells): caused dispersal of the compact morphology

Cc1ncc(-c2ccnc(Nc3ccc(S(C)(=O)=O)cc3)n2)n1C(C)C [AZD5438, 4-[2-Methyl-1-(1-methylethyl)-1H-imidazol-5-yl]-N-[4-(methylsulfonyl)phenyl]-2-pyrimidinamine]
effect on downregulation of naïve pluripotency markers including LTR7Y (naïve hESCs; 3iL, RNA after 6 days): consistently attenuated downregulation
inhibition of cellular CDK substrates phosphorylation (cellular CDK substrates): effectively inhibits
outcome of the screen (hit) [1]: identified novel regulators of naïve pluripotency
morphology after withdrawal from FINE (FINE cells): caused dispersal of the compact morphology
efficacy against human tumor xenograft growth (human tumor xenograft): efficacious
antiproliferation activity (human cancer cultures): displays antiproliferation activity

Cc1ccc(NC(=O)c2ccc(CN3CCN(C)CC3)cc2)cc1Nc1nccc(-c2cccnc2)n1 [Imatinib]
sustaining feeder-free naïve hESCs when replacing Dasatinib in FINE (FINE cells): failed to sustain

Cc1cn(-c2cc(NC(=O)c3ccc(C)c(Nc4nccc(-c5cccnc5)n4)c3)cc(C(F)(F)F)c2)cn1 [Nilotinib]
sustaining feeder-free naïve hESCs when replacing Dasatinib in FINE (FINE cells): failed to sustain
